# Test results taken from US8916526B2, “Flavanone derivative” (National University Corporation Okayama University, priority 2009, dated 2014).
# Key:
# [1] = system: MRSA N315; assay: In vitro infectivity assay (MIC), broth dilution, Exp. Ex. 1-1; format: cell-based, Staphylococcus aureus; conditions: Staphylococcus aureus; MRSA N315; Mueller-Hinton broth, 35° C., 24 hours; read-out: MIC MRSA N315
# In short: (§1)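 CLSI broth microdilution: strains inoculated at about 10^5 CUF/[…] in Mueller-Hinton broth with 0.85% NaCl, incubated 35° C. for 24 hours. MIC read as lowest inhibitory concentration; measured three times.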
# [2] = system: MRSA OM481; assay: as above; format: cell-based, Staphylococcus aureus; conditions: Staphylococcus aureus; MRSA OM481; Mueller-Hinton broth, 35° C., 24 hours; read-out: MIC MRSA OM481
# In short: as §1
# [3] = system: VISA Mu50; assay: as above; format: cell-based, Staphylococcus aureus; conditions: Staphylococcus aureus; VISA Mu50; Mueller-Hinton broth, 35° C., 24 hours; read-out: MIC VISA Mu50
# In short: as §1
# [4] = system: MRSA OM58; assay: as above; format: cell-based, Staphylococcus aureus; conditions: Staphylococcus aureus; MRSA OM58; Mueller-Hinton broth, 35° C., 24 hours; read-out: MIC MRSA OM58
# In short: as §1
# [5] = system: MSSA FDA 209P; assay: as above; format: cell-based, Staphylococcus aureus; conditions: Staphylococcus aureus; MSSA FDA 209P; Mueller-Hinton broth, 35° C., 24 hours; read-out: MIC MSS 209P
# In short: as §1
# [6] = system: VRE NCTC12201; assay: as above; format: cell-based, enterococci; conditions: Enterococcus; VRE NCTC12201; Mueller-Hinton broth, 35° C., 24 hours; read-out: MIC VRE NCTC12201
# In short: as §1
# [7] = system: VRE FN-1; assay: as above; format: cell-based, enterococci; conditions: Enterococcus; VRE FN-1; Mueller-Hinton broth, 35° C., 24 hours; read-out: MIC VRE FN-1
# In short: as §1
# [8] = system: Vancomycin-resistant enterococci FN-1; assay: In vitro infectivity assay (MIC), Exp. Ex. 2-1; format: cell-based; conditions: Enterococcus, VRE; Gram-positive; microdilution, MIC after 24 h; read-out: MIC VRE FN-1
# In short: (§2)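 Activity is expressed as MIC under CLSI broth dilution, using a starting inoculum near 10^5 CUF/[…] in Mueller-Hinton medium plus 0.85% NaCl; plates sit at 35° C for 24 hours, three measurements.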
# [9] = system: Vancomycin-resistant enterococci NCTC 12201; assay: In vitro infectivity assay (MIC), Exp. Ex. 2-1; format: cell-based; conditions: Enterococcus, NCTC 12201 / VRE; Gram-positive; microdilution, MIC after 24 h; read-out: MIC VRE NCTC 12201
# In short: as §2
# [10] = system: Vancomycin intermediate-resistant Staphylococcus aureus Mu50; assay: In vitro infectivity assay (MIC), Exp. Ex. 2-1; format: cell-based; conditions: Staphylococcus aureus, VISA; Gram-positive; microdilution, MIC after 24 h; read-out: MIC VISA Mu50
# In short: as §2
# [11] = molecular target: T1, DNA gyrase of Escherichia coli (Escherichia coli, UniProt P0AES4+P0AES6); assay: DNA gyrase inhibition (supercoiling assay kit), Exp. Ex. 1-2; format: biochemical; conditions: E. coli DNA gyrase supercoiling, relaxed pBR322, 37° C., 30 minutes; read-out: Gyrase inhibitory activity IC50 (converted)
# T1 construct: purchased John Innes Enterprises #K0001
# T1 sequence (P0AES4 whole entry, one chain of several): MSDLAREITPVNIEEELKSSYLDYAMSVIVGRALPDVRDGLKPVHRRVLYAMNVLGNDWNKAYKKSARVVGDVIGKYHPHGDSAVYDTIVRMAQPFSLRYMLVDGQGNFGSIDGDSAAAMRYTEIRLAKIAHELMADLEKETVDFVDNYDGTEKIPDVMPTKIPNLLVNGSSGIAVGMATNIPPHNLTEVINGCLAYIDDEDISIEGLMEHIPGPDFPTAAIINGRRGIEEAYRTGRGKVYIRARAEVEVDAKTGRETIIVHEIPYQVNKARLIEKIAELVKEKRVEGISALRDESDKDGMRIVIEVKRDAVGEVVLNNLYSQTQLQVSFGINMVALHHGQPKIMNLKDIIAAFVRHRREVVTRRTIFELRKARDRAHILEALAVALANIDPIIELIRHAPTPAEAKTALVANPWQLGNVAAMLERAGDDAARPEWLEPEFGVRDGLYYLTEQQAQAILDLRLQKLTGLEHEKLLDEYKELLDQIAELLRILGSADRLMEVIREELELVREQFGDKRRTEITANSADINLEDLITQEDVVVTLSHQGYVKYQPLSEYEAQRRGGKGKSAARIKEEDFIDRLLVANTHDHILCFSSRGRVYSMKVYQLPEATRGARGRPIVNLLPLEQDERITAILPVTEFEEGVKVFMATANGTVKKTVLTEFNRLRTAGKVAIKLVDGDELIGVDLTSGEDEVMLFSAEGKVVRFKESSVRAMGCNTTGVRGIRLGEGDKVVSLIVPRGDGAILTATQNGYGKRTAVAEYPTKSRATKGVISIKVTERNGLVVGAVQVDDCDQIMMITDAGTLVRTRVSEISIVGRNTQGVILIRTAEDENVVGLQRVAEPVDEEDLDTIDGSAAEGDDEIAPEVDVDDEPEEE
# In short: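 Relaxed pBR322 DNA […] supercoiled by 1 U E. coli gyrase for 30 min at 37 °C in 35 mM Tris-HCl pH 7.5, 24 mM KCl, 4 mM MgCl2, 2 mM DTT, 1.8 mM spermidine, 1 mM ATP, 6.5% glycerol, 0.1 mg/ml BSA. Products resolved by gel electrophoresis; IC50 determined.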
# [12] = system: Methicillin-resistant S. aureus N315; assay: In vitro infectivity assay (MIC), Exp. Ex. 2-1; format: cell-based, Staphylococcus aureus; conditions: Staphylococcus aureus, MRSA; Gram-positive; microdilution, MIC after 24 h; read-out: MIC MRSA N315
# In short: as §2
# [13] = system: Methicillin-resistant S. aureus OM481; assay: In vitro infectivity assay (MIC), Exp. Ex. 2-1; format: cell-based, Staphylococcus aureus; conditions: Staphylococcus aureus, MRSA; Gram-positive; microdilution, MIC after 24 h; read-out: MIC MRSA OM481
# In short: as §2
# [14] = system: Methicillin-resistant S. aureus OM584; assay: In vitro infectivity assay (MIC), Exp. Ex. 2-1; format: cell-based, Staphylococcus aureus; conditions: Staphylococcus aureus, MRSA; Gram-positive; microdilution, MIC after 24 h; read-out: MIC MRSA OM584
# In short: as §2
# [15] = system: Methicillin sensitive S. aureus 209P; assay: In vitro infectivity assay (MIC), Exp. Ex. 2-1; format: cell-based, Staphylococcus aureus; conditions: Staphylococcus aureus, 209P / MSSA; Gram-positive; microdilution, MIC after 24 h; read-out: MIC MSSA 209P
# In short: as §2
smiles,measurement,setting,value
"O=c1c(O)c(-c2ccc(O)c(O)c2)oc2cc(O)cc(O)c12 [Quercetin, quercetin, reference compound]",MIC,[1],> 128 µg/mL
same,MIC,[2],> 128 µg/mL
same,MIC,[3],> 128 µg/mL
same,MIC,[4],> 128 µg/mL
same,MIC,[5],> 128 µg/mL
same,MIC,[6],> 128 µg/mL
same,MIC,[7],> 128 µg/mL
same,MIC,[8],> 128 µg/mL
same,MIC,[9],> 128 µg/mL
same,MIC,[10],> 128 µg/mL
same,IC50,[11],2610 nM
same,MIC,[12],> 128 µg/mL
same,MIC,[13],> 128 µg/mL
same,MIC,[14],> 128 µg/mL
same,MIC,[15],> 128 µg/mL
